Assay results: patent US20220096515A1, “Methods and Formulations for Preventing Neurological or Psychiatric Disorders” (Huntington Medical Research Institutes, priority 2020, published 2022)

Tests used:
[1] = tested on: neuronal cells isolated from the E15 CD1 forebrain; assay: Neuronal cell proliferation and long-distance migration in vitro; assay type: cell-based, mouse
Protocol: Isolation and primary culture of neuronal cells: Primary culture of embryonic GABAergic neurons from CD1 telencephalon or after the saline or NAD+ treatment paradigms were performed using established methods. Briefly, embryonic brains were extracted under a stereo microscope and placed into cold PBS. After removal of the pial membrane, the telencephalon was dissected from each embryonic brain. The telencephalon was minced into 1-2 mm slices in cold PBS. Minced telencephalon was treated with 0.1× trypsin/EDTA at 37° C. for 5 min. Trypsin treatment was stopped by adding FBS-DMEM media and DNase I consecutively. Dissociated cells were filtered with a 40 μm cell strainer and finally filtered cells were cultured in poly-D-lysine coated culture dishes with Neurobasal medium (Life technologies) with 1× B-27 (Life technologies) and 1× Glutamax (Life technologies).
Neuronal migration assay: In preparation for cell migration assays, one well square culture inserts (ibidi GmbH) were placed in the center of a poly-Ornithine/Laminin coated 35 mm dish, to make a small rectangular patch that is labeled outside the dish. Embryonic neurons prepared from the saline and NAD+ treated groups were seeded in the inserts in Neurobasal medium, supplemented with 1× B-27 and 1× Glutamax. After the cells had attached, the inserts were removed to initiate cell migration in all 4 quadrants of the dish. After 24 hours, cells were fixed and labeled with anti-β-Tubulin antibody (1:2000, Biolegend). Neuronal migration was assessed by measuring the distance between the final positions of cells from the border of the rectangular patch was outlined on the first day, using ImageJ software.
In one experiment, periventricular endothelial cells were isolated from E15 wildtype (CD1) forebrain and tested the effect of NAD^+ addition in vitro. Exogenous addition of 100 μM NAD^+ was able to initiate significant endothelial cell proliferation within 2 days of culture and a 35 mm culture dish was confluent within 4-6 days (FIGS. 2A-2D). […]

Gabrb3^ECKO mice [2] = assay: Light-dark transition test; assay type: in vivo, mouse; conditions: after prenatal treatment
Protocol: (§1) Behavioral Experiments: Mice were housed in our animal facility with a 12-hour light cycle with ad libitum access to food and water. Offspring stayed with their mothers until weaning at PND 21 after which males and females were separated. Before all behavioral testing, mice were acclimated to the testing room for 1 hour. Behavioral assays were performed according to established protocols referenced here: self-grooming, light-dark box, tail suspension test, Y-maze, open field locomotion activity, three chamber social interaction test and nest building with nestlets and with shredded paper. Both males and females were used for all behavioral assays. Experimenters scoring behaviors were blinded to the genotypes and treatment. Sample sizes for each assay are noted in figure legends.
(§2) Anxiety was next assessed with the classic light-dark transition test which triggers a struggle between the desires to explore a novel environment versus natural aversion of a brightly illuminated open space. […] The Y maze spontaneous alternation test was used to evaluate for spatial learning and memory in the three groups of mice. After introduction to the center of the maze, the mice were given free access to all three arms. […] The total number of arm entries and the sequence of entries are recorded in order to calculate the percentage of alternation. […]

[3] = tested on: CD1 derived endothelial cells, purified from the periventricular plexus; assay: Long-distance endothelial cell migration assay; assay type: cell-based, mouse; conditions: vs untreated cells
Protocol: In preparation for long-distance cell migration assays, square culture inserts (ibidi GmbH) were placed at one end of a 35 mm dish. Cultures of CD1 derived endothelial cells, purified from the periventricular plexus, were plated in the insert and allowed to migrate for 24 hours in endothelial cell culture medium. Endothelial cells were labeled with cell trace marker (CellLight Plasma Membrane-RFP, BacMam 2.0, Invitrogen) to visualize endothelial cell morphologies during subsequent imaging. The migration of endothelial cells from one end of the dish to the other spanning a distance of 3.5 cm was imaged and quantified.
In one experiment, periventricular endothelial cells were isolated from E15 wildtype (CD1) forebrain and tested the effect of NAD^+ addition in vitro. Exogenous addition of 100 μM NAD^+ was able to initiate significant endothelial cell proliferation within 2 days of culture and a 35 mm culture dish was confluent within 4-6 days (FIGS. 2A-2D). This was an interesting observation, since untreated periventricular endothelial cells take approximately 12 days to reach confluency in 35mm dishes, in our well-established culture conditions. […] Vital elements of angiogenesis include effective endothelial cell proliferation, migration, sprouting, alignment, tube formation and branching. […]

[4] = tested on: Gabrb3^ECKO cerebral cortex; assay: Adult (P90) cortex vessel densities and GABA cell counts after prenatal treatment; assay type: in vivo, mouse
Protocol: Histology, immunohistochemistry, and microscopic analysis: Paraffin immunohistochemistry (IHC) was performed on embryonic brains only while frozen section IHC was used on both embryonic and adult brains. Briefly, for paraffin IHC-E18 brains were fixed in zinc fixative (BD Biosciences PharMingen) for 24 h and processed for paraffin histology. Histological stainings with hematoxylin (Vector Laboratories) and eosin (Sigma) were performed on 8 μm coronal sections. Lectin histochemistry (with biotinylated isolectin B4, 1:50, Sigma) as well as IHC was performed on 20 μm sections. […]
Morphometry: A stereological point grid was superimposed on digital images of biotinylated isolectin-B4+ vessels using ImageJ software. The ratio between points falling on blood vessels and on brain tissue was calculated for each section, and average values were obtained.
Cell counting: Profiles of GABA+ immunoreactive cells were counted in the prefrontal cortex (at bregma levels 1.5, 0.5 and −1.5) using stereotaxic coordinates from the atlas: The Mouse Brain in Stereotaxic Coordinates, by Paxinos and Franklin. For each area, cells in the strip of cortex from the pial surface to the white-gray matter interface were counted using ImageJ software and plotted. […]

Gabrb3^ECKO mice [5] = assay: Open field locomotor activity; assay type: in vivo, mouse; conditions: 60 minutes; between the three groups
Protocol: as §1, §2

Structure (SMILES): NC(=O)c1ccc[n+]([C@@H]2O[C@H](COP(=O)([O-])OP(=O)(O)OC[C@H]3O[C@@H](n4cnc5c(N)ncnc54)[C@H](O)[C@@H]3O)[C@@H](O)[C@H]2O)c1 [NAD^+]
- neuronal cell proliferation ([1]; NAD^+ addition): an increase in cell proliferation
- long-distance migration of neuronal cells ([1]; NAD^+ addition, neurons alone): increased long-distance migration of neuronal cells
- long-distance migration of neuronal cells ([1]; neurons seeded on periventricular endothelial cells): more robust
- time in light vs dark sides (Gabrb3^ECKO mice [2]): spent equivalent times between the light and dark sides of the open field
- long-distance migration of endothelial cells (cell number) [3]: robust long-distance migration
- GABAergic interneurons in adult cerebral cortex [4]: concurrent increase
- blood vessel densities in adult cerebral cortex [4]: concurrent increase
- open field locomotor activity (Gabrb3^ECKO mice [5]): no significant differences
